Data taken from paper PMC7697888, “Comprehensive Set of Tertiary Complex Structures and Palmitic Acid Binding Provide Molecular Insights into Ligand Design for RXR Isoforms” (International Journal of Molecular Sciences, 2020).

Assays:
[1] = target: T1, RXRα (Homo sapiens, UniProt P19793); experiment: Gal4 hybrid reporter gene assay RXRα; type: cell-based; conditions: HEK293T; at 100 µM concentrations and above
T1 construct: pFA-CMV-hRXRα-LBD (NR2B1, UniProt entry: P19793, aa 225–462); expressed in transfected cells; host or cells: HEK293T
T1 sequence (P19793 225-462): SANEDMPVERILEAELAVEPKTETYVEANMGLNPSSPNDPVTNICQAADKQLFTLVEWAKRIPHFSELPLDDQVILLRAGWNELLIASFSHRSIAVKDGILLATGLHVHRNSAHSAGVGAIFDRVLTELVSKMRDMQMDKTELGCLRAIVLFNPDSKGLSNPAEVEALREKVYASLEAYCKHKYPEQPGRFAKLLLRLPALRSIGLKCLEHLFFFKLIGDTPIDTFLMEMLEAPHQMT
Method: (§1) The Gal4 hybrid reporter gene assays for RXRα, RXRβ and RXRγ were performed as described previously using the Gal4-fusion receptor plasmids pFA-CMV-hRXRα-LBD (NR2B1, UniProt entry: P19793, aa 225–462), pFA-CMV-hRXRβ-LBD (NR2B2, UniProt entry: P28702-1, aa 294–533) and pFA-CMV-hRXRγ-LBD (NR2B3, UniProt entry: P48443-1, aa 229–463), which code for the hinge region and LBD of the canonical RXR isoform. pFR-Luc (Stratagene, San Diego, CA, USA) as the reporter plasmid and pRL-SV40 (Promega, Madison, WI, USA) as the internal control were used. HEK293T cells were grown in DMEM high-glucose medium (supplemented with 10% fetal calf serum (FCS), sodium pyruvate (1 mM), penicillin (100 U/mL) and streptomycin (100 μg/mL)) at 37 °C and 5% CO2, and seeded in 96-well plates (3.0 × 10^4 cells/well) on the day before transfection. Right before transfection, medium was changed to Opti-MEM without supplements and cells were transiently transfected using the Lipofectamine LTX reagent (Invitrogen, Carlsbad, CA, USA) according to the manufacturer’s protocol with pFR-Luc (Stratagene), pRL-SV40 (Promega) and the respective pFA-CMV-hRXR-LBD clone. After 5 h of incubation, medium was changed to Opti-MEM (supplemented with penicillin (100 U/mL) and streptomycin (100 μg/mL)) additionally containing 0.1% DMSO and the respective test compounds or 0.1% DMSO alone as the untreated control. After overnight incubation (12–14 h), cells were assayed for luciferase activity using the Dual-Glo luciferase assay system (Promega) according to the manufacturer’s protocol on a Tecan Spark M10 luminometer (Tecan Deutschland GmbH, Crailsheim, Germany). Each sample was tested in at least three biologically independent repeats in duplicates. Data were normalized for transfection efficiency and cell growth by division of firefly luciferase data by Renilla luciferase data and multiplying by 1000 to obtain relative light units (RLUs). Fold activation denotes the mean RLU of test compounds at a respective concentration divided by the mean RLU of untreated control. […]

[2] = target: T2, RXRγ (Homo sapiens, UniProt P48443); experiment: Gal4 hybrid reporter gene assay RXRγ; type: cell-based; conditions: HEK293T; at 100 µM concentrations and above
T2 construct: pFA-CMV-hRXRγ-LBD (NR2B3, UniProt entry: P48443-1, aa 229–463); expressed in transfected cells; host or cells: HEK293T
T2 sequence (P48443 229-463): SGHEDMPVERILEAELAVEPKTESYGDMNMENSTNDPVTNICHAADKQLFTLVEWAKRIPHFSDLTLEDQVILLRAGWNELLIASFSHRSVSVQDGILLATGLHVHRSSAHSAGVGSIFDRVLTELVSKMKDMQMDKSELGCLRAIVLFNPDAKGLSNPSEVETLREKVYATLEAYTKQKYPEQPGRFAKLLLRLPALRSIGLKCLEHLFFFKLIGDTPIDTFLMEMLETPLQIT
Method: as §1

[3] = tested on: RXR; experiment: Gal4 hybrid reporter gene assays, competition with bexarotene / antagonist UVI3003 (isoform not specified); type: cell-based, human; conditions: bexarotene 0.1 µM or 1 µM; for effect on bexarotene-induced RXR activation, low concentration: fatty acid 10 µM; for effect on bexarotene-induced RXR activation, higher concentration: fatty acid 100 µM, not statistically significant for all fatty acids on all isoforms
Method: as §1

Row | SMILES | RXRα activation in Gal4 hybrid reporter gene assay [1] | RXRγ activation in Gal4 hybrid reporter gene assay [2] | effect on bexarotene-induced RXR activation, low concentration [3] | effect on bexarotene-induced RXR activation, higher concentration [3]
1 | CCCCCCCCCCCCCC(=O)O [MA, myristic acid] | activated | activated | tendency to further promote RXR activation | weak competitive behavior
2 | CCCCCCCCCCCCCCCC(=O)O [PA, palmitic acid] | activated | activated | tendency to further promote RXR activation | weak competitive behavior
3 | CCCCCCCCCCCCCCCCCC(=O)O [SA, stearic acid] | activated | activated | tendency to further promote RXR activation | weak competitive behavior
